# Laboratory results published in patent publication US6117661A, “Mutant mono-oxygenase cytochrome P450cam” (BG plc, priority 1995, dated 2000).
# Substitutions are numbered along the chain they refer to. Names may count otherwise. “And” between values parts separate entries of the source, which are not always exact repeats. Equal entries are not always repeated. Where two headings read alike, the source gives them in different places.
# B1: wild-type P-450cam: mono-oxygenase cytochrome P-450cam from P. putida (protein, UniProt P00183 2-415, looked up)
# Camphor 5-monooxygenase: TTETIQSNANLAPLPPHVPEHLVFDFDMYNPSNLSAGVQEAWAVLQESNVPDLVWTRCNGGHWIATRGQLIREAYEDYRHFSSECPFIPREAGEAYDFIPTSMDPPEQRQFRALANQVVGMPVVDKLENRIQELACSLIESLRPQGQCNFTEDYAEPFPIRIFMLLAGLPEEDIPHLKYLTDQMTRPDGSMTFAEAKEALYDYLIPIIEQRRQKPGTDAISIVANGQVNGRPITSDEAKRMCGLLLVGGLDTVVNFLSFSMEFLAKSPEHRQELIERPERIPAACEELLRRFSLVADGRILTSDYEFHGVQLKKGDQILLPQMLSGLDERENACPMHVDFSRQKVSHTTFGHGSHLCLGQHLARREIIVTLKEWLTRIPDFSIAPGAQIQHKSGIVSGVQALPLVWDPATTKAV
# B2: C136A: P-450cam surface mutant, cysteine 136 substituted to alanine (protein, UniProt P00183 2-415, looked up, variant C136A)
# Camphor 5-monooxygenase: B1 Camphor 5-monooxygenase with C136A
# B3: C58A: P-450cam surface mutant, cysteine 58 substituted to alanine (protein, UniProt P00183 2-415, looked up, variant C58A)
# Camphor 5-monooxygenase: B1 Camphor 5-monooxygenase with C58A
# B4: C148A: P-450cam surface mutant, cysteine 148 substituted to alanine (protein, UniProt P00183 2-415, looked up, variant C148A)
# Camphor 5-monooxygenase: B1 Camphor 5-monooxygenase with C148A
# B5: C85A: P-450cam surface mutant, cysteine 85 substituted to alanine (protein, UniProt P00183 2-415, looked up, variant C85A)
# Camphor 5-monooxygenase: B1 Camphor 5-monooxygenase with C85A
# B6: C334A: P-450cam surface mutant, cysteine 334 substituted to alanine (protein, UniProt P00183 2-415, looked up, variant C334A)
# Camphor 5-monooxygenase: B1 Camphor 5-monooxygenase with C334A
# Experiments:
# [1] = biological target: T1, P450cam active site mutant Y96A (also C334A) (Pseudomonas putida, UniProt P00183, C335A/Y97A); format: biochemical, P. putida; conditions: for Products(%) Y96A: label = product
# T1 construct: reconstituted with putidaredoxin and putidaredoxin reductase
# T1 sequence (P00183 2-415 Y97A/C335A): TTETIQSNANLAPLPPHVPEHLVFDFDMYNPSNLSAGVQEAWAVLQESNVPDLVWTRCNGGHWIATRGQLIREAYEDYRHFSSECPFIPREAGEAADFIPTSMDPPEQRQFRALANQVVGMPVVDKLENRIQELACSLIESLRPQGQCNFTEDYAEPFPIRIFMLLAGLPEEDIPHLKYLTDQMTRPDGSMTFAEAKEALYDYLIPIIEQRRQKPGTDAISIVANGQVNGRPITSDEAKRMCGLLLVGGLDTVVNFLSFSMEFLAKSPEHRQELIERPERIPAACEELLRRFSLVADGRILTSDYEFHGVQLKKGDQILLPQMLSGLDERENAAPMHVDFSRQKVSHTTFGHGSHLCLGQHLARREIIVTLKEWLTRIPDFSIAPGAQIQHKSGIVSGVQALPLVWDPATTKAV
# T1 sequence (P00259 whole entry, further chain): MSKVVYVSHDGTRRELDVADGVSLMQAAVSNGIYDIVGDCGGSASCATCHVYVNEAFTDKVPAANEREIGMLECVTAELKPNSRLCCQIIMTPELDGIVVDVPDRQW
# T1 sequence (P16640 whole entry, further chain): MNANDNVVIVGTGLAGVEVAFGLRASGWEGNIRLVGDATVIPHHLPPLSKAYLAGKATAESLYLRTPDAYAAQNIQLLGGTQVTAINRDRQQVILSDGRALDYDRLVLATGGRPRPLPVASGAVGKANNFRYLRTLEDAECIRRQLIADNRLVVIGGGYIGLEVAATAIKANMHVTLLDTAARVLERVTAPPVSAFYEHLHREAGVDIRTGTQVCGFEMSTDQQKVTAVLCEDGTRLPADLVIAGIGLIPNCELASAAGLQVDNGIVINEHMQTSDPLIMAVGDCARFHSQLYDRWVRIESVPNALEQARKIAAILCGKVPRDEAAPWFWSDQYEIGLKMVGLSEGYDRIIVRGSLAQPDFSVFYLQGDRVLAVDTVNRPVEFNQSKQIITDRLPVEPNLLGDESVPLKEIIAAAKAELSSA
# Protocol: (§1) A buffered solution (50 mM Tris.HCI, pH 7.4), typically 3 ml in volume, containing 10 uM putidaredoxin, 2 uM putidaredoxin reductase, 1 uM cytochrome P-450cam mono-oxygenase (wild-type or mutant), 200 mM KCI, 50 ug/ml bovine liver catalase (Sigma), and 1 mM target organic compound such as cyclohexylbenzene (added as a 0.1 M stock in ethanol) was preincubated at 30° C. for 5 minutes. The enzymatic reaction was initiated by adding NADH to a total concentration of 2 mM. Further four aliquots of NADH (to increase the NADH concentration by 1 mM each time) were added in intervals of 10 minutes, and 30 minutes into the incubation one aliquot of substrate (to increase the concentration by 1 mM) was also added. The reaction was quenched after 60 minutes by adding 0.5 ml chloroform and vortexing the mixture. The phases were separated by centrifugation (4000 g) at 4° C. The chloroform layer was analyzed by gas chromatography.
# (§2) For many substrate compounds such as cyclohexylbenzene for which not all the P-450cam-mediated oxidation products are commercially available, the chloroform extracts are evaporated to dryness under a stream of nitrogen. The residues were extracted with hexane and the oxidation products separated by high performance liquid chromatography, eluting with a hexane/isopropanol gradient. The purified products were then identified by mass spectroscopy and particularly nuclear magnetic resonance spectroscopy.
# (§3) The NADH concentration can be monitored at 340 nm and, in all cases, more substrates and NADH are added during the incubation.
# [2] = biological target: T2, P450cam active site mutant Y96F (also C334A) (Pseudomonas putida, UniProt P00183, C335A/Y97F); format: biochemical, P. putida; conditions: for Products(%) Y96F: label = product
# T2 construct: reconstituted with putidaredoxin and putidaredoxin reductase
# T2 sequence (P16640 whole entry): as the sequence (P16640 whole entry, further chain) above
# T2 sequence (P00183 2-415 Y97F/C335A): as the sequence (P00183 2-415 Y97A/C335A) above, with A96F counted along it
# T2 sequence (P00259 whole entry, further chain): as the sequence (P00259 whole entry, further chain) above
# Protocol: as §1, §2, §3
# [3] = biological target: T3, P450cam active site mutant Y96L (also C334A) (Pseudomonas putida, UniProt P00183, C335A/Y97L); format: biochemical, P. putida; conditions: for Products (%) Y96L: label = product
# T3 construct: reconstituted with putidaredoxin and putidaredoxin reductase
# T3 sequence (P00183 2-415 Y97L/C335A): as the sequence (P00183 2-415 Y97A/C335A) above, with A96L counted along it
# T3 sequence (P16640 whole entry, further chain): as the sequence (P16640 whole entry, further chain) above
# T3 sequence (P00259 whole entry, further chain): as the sequence (P00259 whole entry, further chain) above
# Protocol: as §1, §2, §3
# [4] = biological target: T4, P450cam active site mutant Y96V (also C334A) (Pseudomonas putida, UniProt P00183, C335A/Y97V); format: biochemical, P. putida; conditions: for Products (%) Y96V: label = product
# T4 construct: reconstituted with putidaredoxin and putidaredoxin reductase
# T4 sequence (P00183 2-415 Y97V/C335A): as the sequence (P00183 2-415 Y97A/C335A) above, with A96V counted along it
# T4 sequence (P00259 whole entry, further chain): as the sequence (P00259 whole entry, further chain) above
# T4 sequence (P16640 whole entry, further chain): as the sequence (P16640 whole entry, further chain) above
# Protocol: as §1, §2, §3
# [5] = biological target: T5, P450cam WT (Pseudomonas putida, UniProt P00183); experiment: Product distribution following oxidation of substrates (GC); format: biochemical, P. putida; conditions: for Products (%) WT: label = product
# T5 construct: reconstituted with putidaredoxin and putidaredoxin reductase
# T5 sequence (P00259 whole entry): as the sequence (P00259 whole entry, further chain) above
# T5 sequence (P16640 whole entry, further chain): as the sequence (P16640 whole entry, further chain) above
# T5 sequence (P00183 whole entry): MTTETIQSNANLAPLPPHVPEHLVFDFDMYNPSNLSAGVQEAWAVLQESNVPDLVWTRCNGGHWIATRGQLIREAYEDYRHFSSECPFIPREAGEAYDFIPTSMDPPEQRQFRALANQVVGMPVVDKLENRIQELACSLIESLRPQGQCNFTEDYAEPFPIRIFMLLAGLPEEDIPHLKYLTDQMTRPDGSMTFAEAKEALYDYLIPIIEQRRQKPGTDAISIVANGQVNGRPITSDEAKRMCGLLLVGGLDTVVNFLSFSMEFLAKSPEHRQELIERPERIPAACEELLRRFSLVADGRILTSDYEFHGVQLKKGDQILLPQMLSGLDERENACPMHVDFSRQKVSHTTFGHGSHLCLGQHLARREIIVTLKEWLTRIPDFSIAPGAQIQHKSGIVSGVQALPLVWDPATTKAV
# Protocol: as §1, §2, §3
# [6] = biological target: T6, P450cam active site mutant F87A-F96G-F193A (Pseudomonas putida, UniProt P00183, C335A/F194A/F88A/Y97G); format: biochemical, P. putida; conditions: for Products (%) F87A-F96G-F193A: label = product
# T6 construct: reconstituted with putidaredoxin and putidaredoxin reductase
# T6 sequence (P00259 whole entry): as the sequence (P00259 whole entry, further chain) above
# T6 sequence (P00183 2-415 F88A/Y97G/F194A/C335A): as the sequence (P00183 2-415 Y97A/C335A) above, with F87A, A96G, F193A counted along it
# T6 sequence (P16640 whole entry, further chain): as the sequence (P16640 whole entry, further chain) above
# Protocol: as §1, §2, §3
# [7] = biological target: T7, Wild type P450cam (Pseudomonas putida, UniProt P00183); experiment: Turnover rate measured as NADH consumption rate; format: biochemical, P. putida; conditions: small alkanes; background about 0.07
# T7 sequence (P00183 whole entry): as the sequence (P00183 whole entry) above
# T7 sequence (P00259 whole entry, further chain): as the sequence (P00259 whole entry, further chain) above
# T7 sequence (P16640 whole entry, further chain): as the sequence (P16640 whole entry, further chain) above
# Protocol: as §1, §3
# (§4) Turnover rate measured as NADH consumption rate
# (§5) (nmole NADH/nmole P450cam/s).
# [8] = biological target: T8, P450cam Y96A (also contains the C334A mutation) (Pseudomonas putida, UniProt P00183, C335A/Y97A); format: biochemical, P. putida; conditions: small alkanes
# T8 construct: reconstituted with putidaredoxin and putidaredoxin reductase
# T8 sequence (P00183 2-415 Y97A/C335A): as the sequence (P00183 2-415 Y97A/C335A) above
# T8 sequence (P16640 whole entry, further chain): as the sequence (P16640 whole entry, further chain) above
# T8 sequence (P00259 whole entry, further chain): as the sequence (P00259 whole entry, further chain) above
# Protocol: as §1, §3, §4, §5
# [9] = biological target: P450cam Mutant Y96A (Pseudomonas putida, UniProt P00183, C335A/Y97A); format: binding, P. putida
# Sequence of P450cam Mutant Y96A (P00183 2-415 Y97A/C335A): as the sequence (P00183 2-415 Y97A/C335A) above
# Sequence of P450cam Mutant Y96A (P16640 whole entry, further chain): as the sequence (P16640 whole entry, further chain) above
# Sequence of P450cam Mutant Y96A (P00259 whole entry, further chain): as the sequence (P00259 whole entry, further chain) above
# [10] = biological target: T7, Wild type P450cam; format: binding, P. putida; conditions: for Wild type ΔSpin high/low: -- = no shift, nd = not determined
# [11] = Protein aggregation upon standing/storage; format: physicochemical; conditions: for dimerisation and aggregation upon storage: storage at 4° C., and even in 50% glycerol solutions at -20° C.
# Source text: The C334A mutation has the obvious benefit of removing unwanted protein dimerisation, thus ensuring the presence of a single species in solution at all times. In addition, we noted a completely unexpected benefit of this mutation. […] Aggregation will also occur during turnover, especially at the higher P-450cam concentrations required in any economically viable industrial application in, for example, synthesis of organic molecules. […] Thus, the C334A mutation has beneficial effects in protein handling, storage, and increased catalyst lifetime.
# [12] = Protein dimerisation by anion exchange FPLC and gel filtration; format: physicochemical; conditions: Resource Q FPLC and Superose 12 gel filtration; C334A even at high concentrations (0.1 mM range)
# Source text: We concluded that wild-type P-450cam underwent dimerisation by intermolecular S--S disulphide bond formation between the surface cysteine 334 on two protein molecules.
# [13] = -- = no shift, nd = not determined
molecule,measurement,setting,value
"OC1CCCC(c2ccccc2)C1 (single isomer, unassigned) [3-ol]",Products(%) Y96A,[1]; substrate cyclohexylbenzene,20%
same,Products(%) Y96F,[2]; substrate cyclohexylbenzene,54%
same,Products (%) Y96L,[3]; substrate cyclohexylbenzene,38%
same,Products (%) Y96V,[4]; substrate cyclohexylbenzene,28%
same,Products (%) WT,[5]; substrate cyclohexylbenzene,43%
Oc1cccc2ccccc12 [1-ol],Products(%) Y96A,[1]; substrate naphthalene,100%
same,Products(%) Y96F,[2]; substrate naphthalene,100%
same,Products (%) Y96L,[3]; substrate naphthalene,100%
same,Products (%) F87A-F96G-F193A,[6]; substrate naphthalene,100%
same,Products (%) Y96V,[4]; substrate naphthalene,100%
same,Products (%) WT,[5]; substrate naphthalene,100%
CCCCC(C)C [2-methyl hexane],Turnover rate (NADH consumption rate) Wild type,[7],background
same,Turnover rate (NADH consumption rate) Y96A,[8],10.6 nmole NADH/nmole P450cam/s
same,Relative activity (WT = 1) Y96A,[1]; substrate 2-methyl hexane,2.6
same,Relative activity (WT = 1) Y96F,[2]; substrate 2-methyl hexane,2.3
Oc1ccc2ccccc2c1 [2-ol],Products(%) Y96A,[1]; substrate naphthalene,0%
same,Products(%) Y96F,[2]; substrate naphthalene,0%
same,Products (%) Y96L,[3]; substrate naphthalene,0%
same,Products (%) F87A-F96G-F193A,[6]; substrate naphthalene,0%
same,Products (%) Y96V,[4]; substrate naphthalene,0%
same,Products (%) WT,[5]; substrate naphthalene,0%
OC1C=C(c2ccccc2)CCC1 (stereo not drawn) [3-ol (B)],Products(%) Y96A,[1]; substrate phenylcyclohexene,75%
same,Products (%) WT,[5]; substrate phenylcyclohexene,76%
O=C1C=C(c2ccccc2)CCC1 [3-one (A)],Products(%) Y96A,[1]; substrate phenylcyclohexene,25%
same,Products (%) WT,[5]; substrate phenylcyclohexene,24%
O[C@H]1CC[C@@H](c2ccccc2)CC1 [Cis-4-ol],Products(%) Y96A,[1]; substrate cyclohexylbenzene,45%
same,Products(%) Y96F,[2]; substrate cyclohexylbenzene,13%
same,Products (%) Y96L,[3]; substrate cyclohexylbenzene,16%
same,Products (%) Y96V,[4]; substrate cyclohexylbenzene,23%
same,Products (%) WT,[5]; substrate cyclohexylbenzene,12%
c1ccc(C2CCCCC2)cc1 [Cyclohexylbenzene],Mutant Y96A ΔSpin high/low,[9]; [13],80
same,Wild type Vs DTT,[10],20
same,Wild type ΔSpin high/low,[10],20
same,Total products Y96A,[1]; substrate cyclohexylbenzene,7.4 area/10^5
same,Total products Y96F,[2]; substrate cyclohexylbenzene,1.1 area/10^5
same,Total products Y96L,[3]; substrate cyclohexylbenzene,10.4 area/10^5
same,Total products Y96V,[4]; substrate cyclohexylbenzene,12.5 area/10^5
same,Total products WT,[5]; substrate cyclohexylbenzene,0.8 area/10^5
c1ccc2c(c1)-c1cccc3cccc-2c13 [Fluoranthene],Mutant Y96A Vs DTT,[9],10
same,Mutant Y96A ΔSpin high/low,[9],20
same,Wild type Vs DTT,[10],5
same,Total products Y96A,[1]; substrate fluoranthene,2.7 area/10^6
same,Total products F87A-F96G-F193A,[6]; substrate fluoranthene,0.2 area/10^6
same,Total products WT,[5]; substrate fluoranthene,0 area/10^6
CCCCCC [Hexane],Turnover rate (NADH consumption rate) Wild type,[7],background
same,Mutant Y96A Vs DTT,[9],60 and 40
same,Mutant Y96A ΔSpin high/low,[9],70 and 60
same,Turnover rate (NADH consumption rate) Y96A,[8],6.0 nmole NADH/nmole P450cam/s
same,Relative activity (WT = 1) Y96A,[1]; substrate hexane,25.5
same,Relative activity (WT = 1) Y96F,[2]; substrate hexane,18.2
OC1CCCC(c2ccccc2)C1 (stereo not drawn) [L or D 3-ol],Products(%) Y96A,[1]; substrate cyclohexylbenzene,20%
same,Products(%) Y96F,[2]; substrate cyclohexylbenzene,27%
same,Products (%) Y96L,[3]; substrate cyclohexylbenzene,23%
same,Products (%) Y96V,[4]; substrate cyclohexylbenzene,39%
same,Products (%) WT,[5]; substrate cyclohexylbenzene,20%
c1ccc2ccccc2c1 [Naphthalene],Mutant Y96A Vs DTT,[9],20
same,Mutant Y96A ΔSpin high/low,[9]; [13],15
same,Total products Y96A,[1]; substrate naphthalene,1.1 area/10^5
same,Total products Y96F,[2]; substrate naphthalene,2.4 area/10^5
same,Total products Y96L,[3]; substrate naphthalene,0.7 area/10^5
same,Total products F87A-F96G-F193A,[6]; substrate naphthalene,0.1 area/10^5
same,Total products Y96V,[4]; substrate naphthalene,1.4 area/10^5
same,Total products WT,[5]; substrate naphthalene,0.016 area/10^5
c1cc2ccc3cccc4ccc(c1)c2c34 [Pyrene],Total products Y96A,[1]; substrate pyrene,1.2 area/10^6
same,Total products Y96F,[2]; substrate pyrene,1.5 area/10^6
same,Total products Y96L,[3]; substrate pyrene,1.5 area/10^6
same,Total products F87A-F96G-F193A,[6]; substrate pyrene,0.02 area/10^6
same,Total products Y96V,[4]; substrate pyrene,1.6 area/10^6
same,Total products WT,[5]; substrate pyrene,0 area/10^6
O[C@H]1CC[C@H](c2ccccc2)CC1 [Trans-4-ol],Products(%) Y96A,[1]; substrate cyclohexylbenzene,15%
same,Products(%) Y96F,[2]; substrate cyclohexylbenzene,6%
same,Products (%) Y96L,[3]; substrate cyclohexylbenzene,23%
same,Products (%) Y96V,[4]; substrate cyclohexylbenzene,10%
same,Products (%) WT,[5]; substrate cyclohexylbenzene,25%
CCCCCCC [n-Heptane],Turnover rate (NADH consumption rate) Wild type,[7],2.7 nmole NADH/nmole P450cam/s
same,Mutant Y96A Vs DTT,[9],40
same,Mutant Y96A ΔSpin high/low,[9]; [13],60
same,Turnover rate (NADH consumption rate) Y96A,[8],4.4 nmole NADH/nmole P450cam/s
same,Wild type Vs DTT,[10],5
same,Wild type ΔSpin high/low,[10],5
CCCCCCCC [n-Octane],Turnover rate (NADH consumption rate) Wild type,[7],background
same,Mutant Y96A Vs DTT,[9],45
same,Mutant Y96A ΔSpin high/low,[9]; [13],80
same,Turnover rate (NADH consumption rate) Y96A,[8],5.8 nmole NADH/nmole P450cam/s
same,Wild type Vs DTT,[10],5
CCCCC [n-Pentane],Turnover rate (NADH consumption rate) Wild type,[7],background
same,Mutant Y96A Vs DTT,[9],40
same,Mutant Y96A ΔSpin high/low,[9]; [13],55
same,Turnover rate (NADH consumption rate) Y96A,[8],5.8 nmole NADH/nmole P450cam/s
same,Wild type Vs DTT,[10],5
B1,dimerisation and aggregation upon storage,[11],dimerisation as well as aggregation
same,presence of protein dimer,[12],dimer was detected
B2,dimerisation and aggregation upon storage,[11],dimerisation as well as aggregation
same,presence of protein dimer,[12],dimer was detected
B3,dimerisation and aggregation upon storage,[11],dimerisation as well as aggregation
same,presence of protein dimer,[12],dimer was detected
B4,dimerisation and aggregation upon storage,[11],dimerisation as well as aggregation
same,presence of protein dimer,[12],dimer was detected
B5,dimerisation and aggregation upon storage,[11],dimerisation as well as aggregation
same,presence of protein dimer,[12],dimer was detected
B6,aggregation,[11]; mM concentrations at room temperature over a period of three days,did not show any evidence of aggregation
same,presence of protein dimer,[12],no dimer was detected
